Measurements taken from paper PMC10698194 (Nature Communications, 2023).
Bridge positions count the residues as written; N and C are the ends. Square brackets hold non-standard residues; d marks the D form. Peptide text beside a SMILES is read from it. * marks the point of attachment. X1 = C=CCN1CC[C@]23c4c5ccc(O)c4O[C@H]2[C@H](N*)CC[C@@]3(O)[C@H]1C5

Biological target: T1, human KOR E297A (Homo sapiens, UniProt P41145, E297A)
T1 construct: FLAG; expressed in transfected cells; host or cells: HEK293T
Assay type: cell-based
Settings: HEK-293T, KOR E297A

T1 sequence (P41145 whole entry E297A): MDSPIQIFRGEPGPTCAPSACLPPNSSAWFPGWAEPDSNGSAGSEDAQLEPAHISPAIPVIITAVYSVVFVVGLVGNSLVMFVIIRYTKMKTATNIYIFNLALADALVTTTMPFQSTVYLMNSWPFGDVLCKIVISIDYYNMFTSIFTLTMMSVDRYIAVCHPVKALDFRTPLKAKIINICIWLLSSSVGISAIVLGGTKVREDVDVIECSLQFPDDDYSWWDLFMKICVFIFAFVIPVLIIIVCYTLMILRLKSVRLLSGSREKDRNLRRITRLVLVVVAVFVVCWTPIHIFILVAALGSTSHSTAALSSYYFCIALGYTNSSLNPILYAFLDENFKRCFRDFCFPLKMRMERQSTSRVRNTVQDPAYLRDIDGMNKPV

## C=CCN1CC[C@]23c4c5ccc(O)c4O[C@H]2[C@H](NC(=O)[C@@H](Cc2ccccc2)NC(=O)[C@@H](NC(=O)[C@@H]2CSCC(=O)N[C@@H](Cc4ccc(O)cc4)C(=O)N[C@@H](C)C(=O)N[C@H](Cc4ccc(O)cc4)C(=O)N[C@@H]([C@@H](C)O)C(=O)N[C@@H]([C@@H](C)O)C(=O)N2)[C@@H](C)O)CC[C@@]3(O)[C@H]1C5 [DNCP-β-NalA(1)] ({CH2CO}-YA[dY]TTCT[dF]-X1; thioether N-6)
  Emax: 96.28 ± 0.53%
